Experimental data from the supplement of paper PMC10307832.

Experiments:
Assay in all cases: relative viability (nuclei count vs DMSO), 5 days (fraction); higher = more cells survive
AZD6482 + Lapatinib = compound: Cc1cc([C@@H](C)Nc2ccccc2C(=O)O)c2nc(N3CCOCC3)cc(=O)n2c1 [AZD6482] + CS(=O)(=O)CCNCc1ccc(-c2ccc3ncnc(Nc4ccc(OCc5cccc(F)c5)c(Cl)c4)c3c2)o1 [Lapatinib] (partner 2 µM)
Outline: (§1)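 Lung cancer cell lines in 1536-well plates were dosed by pin tool the day after seeding, either with one drug alone or with a fixed anchor-drug dose plus five library-drug doses (not always all listed) in √10 steps. After 5 days, cells were fixed and their nuclei stained in one step (final 0.05% Triton X-100, 1% formaldehyde, 1 ug/ml Hoechst), then counted on 4× images. Relative viability is the nuclei count in treated wells divided by that in vehicle wells. Values are medians of duplicate plates.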

[1] = compound: COc1cc2nc(N3CCCN(C)CC3)nc(NC3CCN(Cc4ccccc4)CC3)c2cc1OC + C[C@]1(O)C[C@@H](c2nc(-c3ccc4ccc(-c5ccccc5)nc4c3)c3c(N)nccn32)C1 [Linsitinib] (partner 1 µM)
Outline: as §1

[2] = compound: COc1cc2nc(N3CCCN(C)CC3)nc(NC3CCN(Cc4ccccc4)CC3)c2cc1OC + Nc1nc2[nH]cc(CCc3ccc(C(=O)N[C@@H](CCC(=O)O)C(=O)O)cc3)c2c(=O)[nH]1 [Pemetrexed] (partner 0.2 µM)
Outline: as §1

[3] = compound: COc1cc2nc(N3CCCN(C)CC3)nc(NC3CCN(Cc4ccccc4)CC3)c2cc1OC + Cc1nc(Nc2ncc(C(=O)Nc3c(C)cccc3Cl)s2)cc(N2CCN(CCO)CC2)n1 [Dasatinib] (partner 0.075 µM)
Outline: as §1

NCI-H1355 gave a relative viability (AZD6482 + Lapatinib; first compound 0.08 µM) of 0.694, a relative viability (AZD6482 + Lapatinib; first compound 0.253 µM) of 0.903 and a relative viability (AZD6482 + Lapatinib; first compound 0.8 µM) of 0.956. It also gave a relative viability (AZD6482 + Lapatinib; first compound 2.53 µM) of 0.678, a relative viability (AZD6482 + Lapatinib; first compound 8 µM) of 0.717 and a relative viability ([1]; first compound 0.2 µM) of 0.881. It also gave a relative viability ([1]; first compound 0.6325 µM) of 0.784, a relative viability ([1]; first compound 2 µM) of 0.831 and a relative viability ([1]; first compound 6.325 µM) of 0.808. The relative viability ([2]; first compound 0.2 µM) was 1.06, the relative viability ([2]; first compound 0.6325 µM) was 1.03 and the relative viability ([2]; first compound 2 µM) was 1.01. The relative viability ([2]; first compound 6.325 µM) was 0.945, the relative viability ([3]; first compound 0.2 µM) was 0.761 and the relative viability ([3]; first compound 0.6325 µM) was 0.777. The relative viability ([3]; first compound 2 µM) was 0.787 and the relative viability ([3]; first compound 6.325 µM) was 0.783.

H3255 gave a relative viability (AZD6482 + Lapatinib; first compound 0.08 µM) of 0.194, a relative viability (AZD6482 + Lapatinib; first compound 0.253 µM) of 0.221 and a relative viability (AZD6482 + Lapatinib; first compound 0.8 µM) of 0.263. It also gave a relative viability (AZD6482 + Lapatinib; first compound 2.53 µM) of 0.182, a relative viability (AZD6482 + Lapatinib; first compound 8 µM) of 0.152 and a relative viability ([1]; first compound 0.2 µM) of 0.983. For the same cell line, the relative viability ([1]; first compound 0.6325 µM) was 0.992, the relative viability ([1]; first compound 2 µM) was 1.04 and the relative viability ([1]; first compound 6.325 µM) was 0.998. For the same cell line, the relative viability ([2]; first compound 0.2 µM) was 0.563, the relative viability ([2]; first compound 0.6325 µM) was 0.557 and the relative viability ([2]; first compound 2 µM) was 0.595. For the same cell line, the relative viability ([2]; first compound 6.325 µM) was 0.547, the relative viability ([3]; first compound 0.2 µM) was 0.401 and the relative viability ([3]; first compound 0.6325 µM) was 0.5. The relative viability ([3]; first compound 2 µM) was 0.448 and the relative viability ([3]; first compound 6.325 µM) was 0.342.

Cell Line NCI-H1993 has a relative viability (AZD6482 + Lapatinib; first compound 0.08 µM) of 0.779, a relative viability (AZD6482 + Lapatinib; first compound 0.253 µM) of 0.791 and a relative viability (AZD6482 + Lapatinib; first compound 8 µM) of 0.784. It also gave a relative viability ([1]; first compound 0.2 µM) of 0.728, a relative viability ([1]; first compound 0.6325 µM) of 0.723 and a relative viability ([1]; first compound 2 µM) of 0.676. It also gave a relative viability ([1]; first compound 6.325 µM) of 0.765, a relative viability ([2]; first compound 0.2 µM) of 0.602 and a relative viability ([2]; first compound 0.6325 µM) of 0.644. The relative viability ([2]; first compound 2 µM) was 0.579, the relative viability ([2]; first compound 6.325 µM) was 0.549 and the relative viability ([3]; first compound 0.2 µM) was 0.568. For the same cell line, the relative viability ([3]; first compound 0.6325 µM) was 0.657, the relative viability ([3]; first compound 2 µM) was 0.657 and the relative viability ([3]; first compound 6.325 µM) was 0.574.

NCI-H1734 gave a relative viability (AZD6482 + Lapatinib; first compound 0.08 µM) of 0.933, a relative viability (AZD6482 + Lapatinib; first compound 0.253 µM) of 1.02 and a relative viability (AZD6482 + Lapatinib; first compound 0.8 µM) of 1.16. The relative viability (AZD6482 + Lapatinib; first compound 2.53 µM) was 0.632, the relative viability (AZD6482 + Lapatinib; first compound 8 µM) was 0.612 and the relative viability ([1]; first compound 0.2 µM) was 0.964. It also gave a relative viability ([1]; first compound 0.6325 µM) of 0.811, a relative viability ([1]; first compound 2 µM) of 0.832 and a relative viability ([1]; first compound 6.325 µM) of 0.83. For the same cell line, the relative viability ([2]; first compound 0.2 µM) was 0.405, the relative viability ([2]; first compound 0.6325 µM) was 0.414 and the relative viability ([2]; first compound 2 µM) was 0.401. It also gave a relative viability ([2]; first compound 6.325 µM) of 0.424, a relative viability ([3]; first compound 0.2 µM) of 0.524 and a relative viability ([3]; first compound 0.6325 µM) of 0.37. It also gave a relative viability ([3]; first compound 2 µM) of 0.46 and a relative viability ([3]; first compound 6.325 µM) of 0.416.

With HOP-62 the relative viability (AZD6482 + Lapatinib; first compound 0.08 µM) was 1.06, the relative viability (AZD6482 + Lapatinib; first compound 0.253 µM) was 0.856 and the relative viability (AZD6482 + Lapatinib; first compound 0.8 µM) was 1.32. The relative viability (AZD6482 + Lapatinib; first compound 2.53 µM) was 0.827, the relative viability (AZD6482 + Lapatinib; first compound 8 µM) was 1.1 and the relative viability ([1]; first compound 0.2 µM) was 0.878. For the same cell line, the relative viability ([1]; first compound 0.6325 µM) was 0.992, the relative viability ([1]; first compound 2 µM) was 1.03 and the relative viability ([1]; first compound 6.325 µM) was 0.7. It also gave a relative viability ([2]; first compound 0.2 µM) of 0.318, a relative viability ([2]; first compound 0.6325 µM) of 0.257 and a relative viability ([2]; first compound 2 µM) of 0.3. The relative viability ([2]; first compound 6.325 µM) was 0.292, the relative viability ([3]; first compound 0.2 µM) was 0.748 and the relative viability ([3]; first compound 0.6325 µM) was 0.62. The relative viability ([3]; first compound 2 µM) was 0.711 and the relative viability ([3]; first compound 6.325 µM) was 0.65.

LOU-NH91 gave a relative viability (AZD6482 + Lapatinib; first compound 0.08 µM) of 0.626, a relative viability (AZD6482 + Lapatinib; first compound 0.253 µM) of 0.752 and a relative viability (AZD6482 + Lapatinib; first compound 0.8 µM) of 0.681. It also gave a relative viability (AZD6482 + Lapatinib; first compound 2.53 µM) of 0.501, a relative viability (AZD6482 + Lapatinib; first compound 8 µM) of 0.494 and a relative viability ([1]; first compound 0.2 µM) of 0.93. For the same cell line, the relative viability ([1]; first compound 0.6325 µM) was 0.978, the relative viability ([1]; first compound 2 µM) was 0.669 and the relative viability ([1]; first compound 6.325 µM) was 0.979. For the same cell line, the relative viability ([2]; first compound 0.2 µM) was 0.411, the relative viability ([2]; first compound 0.6325 µM) was 0.393 and the relative viability ([2]; first compound 2 µM) was 0.401. For the same cell line, the relative viability ([2]; first compound 6.325 µM) was 0.398, the relative viability ([3]; first compound 0.2 µM) was 0.525 and the relative viability ([3]; first compound 0.6325 µM) was 0.686. For the same cell line, the relative viability ([3]; first compound 2 µM) was 0.439 and the relative viability ([3]; first compound 6.325 µM) was 0.59.

NCI-H2228 showed a relative viability (AZD6482 + Lapatinib; first compound 0.08 µM) of 0.834, a relative viability (AZD6482 + Lapatinib; first compound 0.253 µM) of 0.994 and a relative viability (AZD6482 + Lapatinib; first compound 0.8 µM) of 0.971. For the same cell line, the relative viability (AZD6482 + Lapatinib; first compound 2.53 µM) was 0.662, the relative viability (AZD6482 + Lapatinib; first compound 8 µM) was 0.715 and the relative viability ([1]; first compound 0.2 µM) was 0.59. For the same cell line, the relative viability ([1]; first compound 0.6325 µM) was 0.587, the relative viability ([1]; first compound 2 µM) was 0.83 and the relative viability ([1]; first compound 6.325 µM) was 0.476. For the same cell line, the relative viability ([2]; first compound 0.2 µM) was 0.32, the relative viability ([2]; first compound 0.6325 µM) was 0.347 and the relative viability ([2]; first compound 2 µM) was 0.336. The relative viability ([2]; first compound 6.325 µM) was 0.26, the relative viability ([3]; first compound 0.2 µM) was 0.514 and the relative viability ([3]; first compound 0.6325 µM) was 0.488. The relative viability ([3]; first compound 2 µM) was 0.496 and the relative viability ([3]; first compound 6.325 µM) was 0.243.

PC-14 showed a relative viability (AZD6482 + Lapatinib; first compound 0.08 µM) of 0.257, a relative viability (AZD6482 + Lapatinib; first compound 0.253 µM) of 0.234 and a relative viability (AZD6482 + Lapatinib; first compound 0.8 µM) of 0.255. For the same cell line, the relative viability (AZD6482 + Lapatinib; first compound 2.53 µM) was 0.196, the relative viability (AZD6482 + Lapatinib; first compound 8 µM) was 0.219 and the relative viability ([1]; first compound 0.2 µM) was 0.923. For the same cell line, the relative viability ([1]; first compound 0.6325 µM) was 0.91, the relative viability ([1]; first compound 2 µM) was 1.02 and the relative viability ([1]; first compound 6.325 µM) was 0.865. It also gave a relative viability ([2]; first compound 0.2 µM) of 0.133, a relative viability ([2]; first compound 0.6325 µM) of 0.153 and a relative viability ([2]; first compound 2 µM) of 0.118. It also gave a relative viability ([2]; first compound 6.325 µM) of 0.0737, a relative viability ([3]; first compound 0.2 µM) of 0.236 and a relative viability ([3]; first compound 0.6325 µM) of 0.277. The relative viability ([3]; first compound 2 µM) was 0.197 and the relative viability ([3]; first compound 6.325 µM) was 0.0162.

NCI-H1437 showed a relative viability (AZD6482 + Lapatinib; first compound 0.08 µM) of 0.727, a relative viability (AZD6482 + Lapatinib; first compound 0.253 µM) of 0.747 and a relative viability (AZD6482 + Lapatinib; first compound 0.8 µM) of 0.769. The relative viability (AZD6482 + Lapatinib; first compound 2.53 µM) was 0.592, the relative viability (AZD6482 + Lapatinib; first compound 8 µM) was 0.421 and the relative viability ([1]; first compound 0.2 µM) was 1.06. It also gave a relative viability ([1]; first compound 0.6325 µM) of 0.956, a relative viability ([1]; first compound 2 µM) of 1.11 and a relative viability ([1]; first compound 6.325 µM) of 0.891. The relative viability ([2]; first compound 0.2 µM) was 0.279, the relative viability ([2]; first compound 0.6325 µM) was 0.293 and the relative viability ([2]; first compound 2 µM) was 0.36. It also gave a relative viability ([2]; first compound 6.325 µM) of 0.324, a relative viability ([3]; first compound 0.2 µM) of 0.48 and a relative viability ([3]; first compound 0.6325 µM) of 0.454. For the same cell line, the relative viability ([3]; first compound 2 µM) was 0.492 and the relative viability ([3]; first compound 6.325 µM) was 0.384.

For NCI-H460, the relative viability (AZD6482 + Lapatinib; first compound 0.08 µM) was 0.869, the relative viability (AZD6482 + Lapatinib; first compound 0.253 µM) was 0.796 and the relative viability (AZD6482 + Lapatinib; first compound 0.8 µM) was 1.17. It also gave a relative viability (AZD6482 + Lapatinib; first compound 2.53 µM) of 0.585, a relative viability (AZD6482 + Lapatinib; first compound 8 µM) of 0.758 and a relative viability ([1]; first compound 0.2 µM) of 0.73. The relative viability ([1]; first compound 0.6325 µM) was 0.792, the relative viability ([1]; first compound 2 µM) was 0.762 and the relative viability ([1]; first compound 6.325 µM) was 0.267. The relative viability ([2]; first compound 0.2 µM) was 0.063, the relative viability ([2]; first compound 0.6325 µM) was 0.0592 and the relative viability ([2]; first compound 2 µM) was 0.0662. For the same cell line, the relative viability ([2]; first compound 6.325 µM) was 0.0719, the relative viability ([3]; first compound 0.2 µM) was 0.532 and the relative viability ([3]; first compound 0.6325 µM) was 0.534. For the same cell line, the relative viability ([3]; first compound 2 µM) was 0.415 and the relative viability ([3]; first compound 6.325 µM) was 0.43.
